Measured values reported in US20190100794A1, “Blood matrix metalloproteinase 9 (MMP9) is a predictive biomarker for cardiac diseases and disorders” (University of Rochester, priority 2017, published 2019).

Columns and labels:
ERK5 in platelets = assay: Platelet activation by FACS P-selectin expression after TRAP6 stimulation, with ERK5 inhibitor pre-incubation; type: cell-based, human; conditions: platelets from healthy volunteers or NSTEMI patients; BIX 02189 0-100 μM, 30 minutes; TRAP6 10 μM, 15 minutes; P<0.05
Procedure: (FIG. 4A) All patients were given 325 mg aspirin at least 30 minutes prior to blood draw. Platelets were isolated from healthy volunteer subjects (control) or from patients with STEMI or NSTEMI. ERK5 activation was assessed by Western blotting using a phosphor-specific antibody (P-ERK5). A pan-ERK5 antibody was used to detect total ERK5 and the ratio (P-ERK5/ERK5) was used to report ERK5 activity as mean±SEM, n=10-13. *p<0.05 control vs. STEMI, **p=0.01 control vs NSTEMI. The molecular weight is indicated in kiloDaltons (kDa). (FIG. 4B) All patients were given 325-mg aspirin at least 30 minutes before blood draw. […] Platelet activation was assessed by fluorescence-activated cell sorting by P-selectin expression, mean fluorescence intensity (MFI)±SEM, all performed in quadruplicate in each group, n=4. *P<0.05 between NSTEMI/TRAP6 and NSTEMI/TRAP6+BIX 02189 and **P<0.05 control/TRAP6 and control/TRAP6+BIX 02189.
For each study subject, blood was obtained by a trained medical professional into citrate plasma tubes, then centrifuged in a tabletop centrifuge at 1100 rpm for 15 mins. […] This reaction was then stopped by adding 100 μL of 2% formalin to each reaction, and then quantification of platelet surface P-selectin was made possible using an Accuri Flow Cytometer (BD Biosciences) at 10K events per sample. […] Platelet surface p-selectin was quantified in quadruplicate using the geometric mean. […]

[1] = biological target: T1, platelet cyclooxygenase (COX) (Homo sapiens, UniProt P23219); assay: Plasma TxB2 concentration by ELISA as marker of aspirin inhibition of platelet cyclooxygenase; type: in vivo; conditions: STEMI and NSTEMI patients given 325 mg aspirin at least 30 min before blood draw, versus healthy volunteers not treated with aspirin
T1 construct: endogenous in cells; plasma TxB2 measured by ELISA
T1 sequence (P23219 24-599): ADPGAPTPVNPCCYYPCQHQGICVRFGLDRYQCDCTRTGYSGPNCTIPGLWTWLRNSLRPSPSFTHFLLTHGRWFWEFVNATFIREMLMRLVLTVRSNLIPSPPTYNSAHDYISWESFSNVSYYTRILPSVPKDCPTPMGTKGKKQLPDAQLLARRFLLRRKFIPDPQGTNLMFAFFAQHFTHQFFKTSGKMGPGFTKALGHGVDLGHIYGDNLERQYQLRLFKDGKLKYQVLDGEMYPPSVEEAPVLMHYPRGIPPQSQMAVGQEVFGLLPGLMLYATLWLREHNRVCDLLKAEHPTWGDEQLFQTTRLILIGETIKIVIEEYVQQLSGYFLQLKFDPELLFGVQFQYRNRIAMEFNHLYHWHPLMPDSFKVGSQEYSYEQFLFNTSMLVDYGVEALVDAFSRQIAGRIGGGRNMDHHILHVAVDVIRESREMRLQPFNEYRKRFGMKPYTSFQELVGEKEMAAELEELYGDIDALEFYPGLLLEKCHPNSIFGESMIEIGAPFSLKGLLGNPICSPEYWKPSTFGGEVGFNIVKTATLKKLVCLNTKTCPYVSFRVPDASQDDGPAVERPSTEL
Procedure: Blood was taken from patients immediately upon presentation with STEMI or NSTEMI and compared to healthy volunteer subjects. Each patient had been given 325 mg aspirin at least 30 mins prior to the blood draw. Plasma was isolated and biomarker concentration was evaluated by ELISA. Plasma TxB2 concentration served as a surrogate marker to assess for differences in efficacy of aspirin between groups, comparing this to healthy volunteer subjects (control) not taking aspirin. […] ELISA=Enzyme-Linked Immunosorbant Assay.
Each patient was treated with 325 mg aspirin in the ambulance, in the ED, or hospital least 30 minutes prior to blood draw.
Enzyme-linked immunosorbant assays (ELISAs) were conducted according to the manufacturer's instructions using the sandwich ELISA technique. […] The ELISA for plasma thromboxane B2 (cat#501020) was purchased from Cayman Chemicals.

PAR1 = biological target: T2, PAR1 (Homo sapiens, UniProt P25116); conditions: triple therapy of DAPT plus vorapaxar, cited from earlier work
T2 construct: Thrombin-Receptor Antagonist Vorapaxar in Acute Coronary Syndromes (TRACER) study; host or cells: patients of a clinical trial (Tricoci P, et al., 2012, N Engl J Med)
T2 sequence (P25116 22-425): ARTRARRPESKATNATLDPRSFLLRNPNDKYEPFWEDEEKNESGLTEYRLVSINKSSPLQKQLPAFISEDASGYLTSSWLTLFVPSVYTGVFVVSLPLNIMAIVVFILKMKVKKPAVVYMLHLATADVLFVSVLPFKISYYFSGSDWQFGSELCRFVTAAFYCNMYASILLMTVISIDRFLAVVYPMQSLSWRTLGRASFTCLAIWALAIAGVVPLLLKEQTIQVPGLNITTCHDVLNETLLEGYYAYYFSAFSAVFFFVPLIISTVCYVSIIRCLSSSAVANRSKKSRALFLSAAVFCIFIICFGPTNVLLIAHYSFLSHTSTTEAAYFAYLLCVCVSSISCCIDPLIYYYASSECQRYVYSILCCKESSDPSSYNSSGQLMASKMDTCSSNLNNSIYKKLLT

CN(C)Cc1cccc(N/C(=C2\C(=O)Nc3cc(C(=O)N(C)C)ccc32)c2ccccc2)c1 [BIX 02189]
TRAP6-induced platelet activation (P-selectin expression, MFI) (ERK5 in platelets): prevents platelet activation

CC(=O)Oc1ccccc1C(=O)O [aspirin]
plasma TxB2 concentration [1]: decrease

CCOC(=O)N[C@@H]1CC[C@@H]2[C@@H](C1)C[C@H]1C(=O)O[C@H](C)[C@H]1[C@H]2/C=C/c1ccc(-c2cccc(F)c2)cn1 [vorapaxar]
relative reduction in the primary end point (PAR1; nonsignificant): 8% | bleeding (PAR1): trend toward clinically significant bleeding
